Results taken from article PMC11784839, “Monoaminergic neurotransmitters are bimodal effectors of tau aggregation” (Science Advances, 2025).

Molecular target: tau (Homo sapiens, UniProt P10636)
Experiment: MCE Phenols Library screening, tau biosensor cell seeding assay (AvZ)
Type: cell-based
Details: for Z repl 1 / Z Repl 2: Z score; for Z repl 1 / raw data 1: replicate 1; for Z Repl 2 / raw data 2: replicate 2; for AvZ (average z score of seeding, SDs from the mean level of seeding): 10 μM phenol in cell cultures, AD brain homogenate preincubated 16 hours, two biological replicates, positive = catalyzes seeding, negative = inhibits
[1] = average Z score of the two replicates, MCE Phenols Library screen
[2] = average puncta of the two replicates
[3] = average Z score of two replicates, Phenols Library screen
[4] = average Z score of the two replicates, tau biosensor seeding, MCE Phenols Library screen
[5] = average Z score of the two replicates, tau seeding

Chain of tau (P10636 623-695 limits assumed): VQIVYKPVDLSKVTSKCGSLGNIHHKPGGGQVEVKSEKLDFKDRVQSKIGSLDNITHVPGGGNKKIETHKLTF

| Molecule | Z repl 1 | Z Repl 2 | av Z [1] | av puncta [2] | raw data 1 (raw puncta) | raw data 2 (raw puncta) | av Z [3] | av puncta (average of raw data 1 and 2) | raw data 1 (puncta) | raw data 2 (puncta) | av Z [4] | AvZ (average z score of seeding, SDs from the mean level of seeding) | av Z [5] |
| --- | --- | --- | --- | --- | --- | --- | --- | --- | --- | --- | --- | --- | --- |
| COc1ccc(CCC(=O)c2c(O)cc(O[C@@H]3O[C@H](CO)[C@@H](O)[C@H](O)[C@H]3O[C@@H]3O[C@@H](C)[C@H](O)[C@@H](O)[C@H]3O)cc2O)cc1O [Neohesperidin dihydrochalcone] | -0.172 | -0.225 | -0.198 | 17327.7 | 24288.2 | 10367.2 | – | – | – | – | – | – | – |
| Liquiritin apioside | 0.133 | -0.022 | – | – | – | – | 0.056 | 20239.1 | 27949.8 | 12528.3 | – | – | – |
| O=C(O[C@@H]1Cc2c(O)cc(O)cc2O[C@H]1c1cc(O)c(O)c(O)c1)c1cc(O)c(O)c(O)c1 [(-)-Gallocatechin gallate] | – | -1.187 | – | – | – | – | – | 257.55 | 427.718 | 87.382 | – | – | – |
| COc1ccc(-c2coc3cc(O)c(OC)c(O)c3c2=O)cc1 [Irisolidone] | 0.554 | 1.188 | – | – | – | – | – | 29224.4 | 32994.7 | 25454.1 | 0.871 | – | – |
| O=c1c(O)c(-c2cc(O)c(O)c(O)c2)oc2cc(O)ccc12 [Robinetin] | -0.499 | -0.831 | -0.665 | 12124.5 | – | – | – | – | 20360.8 | 3888.25 | – | – | – |
| COC(=O)[C@]1(O)C[C@@H](O)[C@@H](O)[C@H](OC(=O)/C=C/c2ccc(O)c(O)c2)C1 [3-O-Caffeoylquinic acid methyl ester] | -0.373 | 0.274 | – | – | – | – | -0.049 | 18786.4 | 21876.3 | 15696.4 | – | – | – |
| O=c1cc(-c2ccc(O)cc2)oc2c([C@@H]3O[C@H](CO)[C@@H](O)[C@H](O)[C@H]3O)c(O)c([C@@H]3OC[C@H](O)[C@H](O)[C@H]3O)c(O)c12 [Isoschaftoside] | -0.121 | -0.131 | – | – | – | – | -0.126 | 18128.6 | 24892.1 | 11365.2 | – | – | – |
| CC(C)=CCC[C@]1(C)C=Cc2c(O)c3c(c(CC=C(C)C)c2O1)O[C@]12C(=C[C@@H]4C[C@H]1C(C)(C)O[C@@]2(C/C=C(/C)C(=O)O)C4=O)C3=O [Gambogic acid] | -2.192 | -0.952 | -1.572 | – | – | – | – | 1315.22 | 33.834 | 2596.6 | – | -1.57 | – |
| Theaflavin 3,3'-digallate | – | – | – | – | – | – | – | 323.309 | 392.747 | 253.87 | – | – | – |
| COc1ccc(/C=C/c2cc(O)cc(O)c2)cc1 [4'-Methoxyresveratrol] | 0.613 | 0.599 | – | – | – | – | – | 26435.9 | 33711.1 | 19160.7 | – | – | 0.606 |
| Oc1cc2cc[nH]c2cc1O [5,6-Dihydroxyindole] | -0.206 | -0.973 | – | 13123.8 | – | – | – | – | 23871.3 | 2376.21 | – | -0.59 | – |
| Oc1cccc2ccccc12 [1-Naphthol] | 1.606 | 0.927 | – | – | – | – | – | 34150.6 | 45632.1 | 22669.1 | 1.267 | – | – |
| COc1cc(/C=C/C(=O)[O-])ccc1O.[Na+] [Ferulic acid (sodium)] | -1.081 | -0.257 | – | 11696.2 | – | – | – | – | 13369.9 | 10022.5 | – | -0.669 | – |
| CC(=O)c1ccc(O)cc1C [4?-Hydroxy-2?-methylacetophenone] | 0.511 | -0.266 | – | – | – | – | – | 21207.9 | 32488.1 | 9927.81 | – | 0.123 | – |
| OC[C@H]1O[C@@H](Oc2cc(O)ccc2/C=C/c2cc(O)cc(O)c2)[C@H](O)[C@@H](O)[C@@H]1O [Oxyresveratrol 2-O-?-D-glucopyranoside] | -0.859 | 0.047 | -0.406 | 14655.6 | 16039.6 | 13271.6 | – | – | – | – | – | – | – |
| C=C(C)[C@H](CC=C(C)C)Cc1c(O)cc(OC)c2c1O[C@H](c1ccc(O)cc1OC)CC2=O [(2S)-2'-Methoxykurarinone] | 0.362 | 0.799 | – | – | – | – | – | 25999.8 | 30700.9 | 21298.7 | – | – | 0.581 |

| Molecule | Z repl 1 | Z Repl 2 | av Z [1] | av puncta [2] | raw data 1 (raw puncta) | raw data 2 (raw puncta) | av Z [3] | av puncta (average of raw data 1 and 2) | raw data 1 (puncta) | raw data 2 (puncta) | av Z [4] | AvZ (average z score of seeding, SDs from the mean level of seeding) | av Z [5] |
| --- | --- | --- | --- | --- | --- | --- | --- | --- | --- | --- | --- | --- | --- |
| Oc1cc(O)c2c(c1)O[C@H](c1cc(O)c(O)c(O)c1)[C@H](O)C2 [(-)-Epigallocatechin] | -0.424 | -0.047 | -0.236 | 16761.1 | 21261.4 | 12260.9 | – | – | – | – | – | – | – |
| C[C@@H]1O[C@@H](OC[C@H]2O[C@@H](Oc3c(-c4ccc(OCCO)c(OCCO)c4)oc4cc(OCCO)cc(O)c4c3=O)[C@H](O)[C@@H](O)[C@@H]2O)[C@H](O)[C@H](O)[C@H]1O [Troxerutin] | -0.342 | -0.568 | -0.455 | 14474.7 | – | – | – | – | 22246.4 | 6703.04 | – | – | – |
| COc1ccc(/C=C/C(=O)C(C)(C)C(=O)/C=C/c2ccc(OC)c(OC)c2)cc1OC [Tetramethylcurcumin] | -1.086 | -0.943 | -1.014 | – | – | – | – | 8003.14 | 13309.5 | 2696.76 | – | – | – |
| O=C(O[C@H](Cc1ccc(O)c(O)c1)C(=O)O)C1=Cc2cc(O)c(O)cc2[C@H](c2ccc(O)c(O)c2)[C@H]1C(=O)OC(Cc1ccc(O)c(O)c1)C(=O)O (stereo in doubt) [Rabdosiin] | -0.457 | -0.234 | -0.346 | 15561.2 | 20858.2 | 10264.2 | – | – | – | – | – | – | – |
| CC(C)=CCc1c(O)c(CC=C(C)C)c2oc3c(O)cccc3c(=O)c2c1O [8-Deoxygartanin] | -0.784 | -0.654 | -0.719 | 11358 | – | – | – | – | 16933.5 | 5782.42 | – | – | – |
| COc1ccc(-c2coc3cc(O[C@@H]4O[C@H](CO)[C@@H](O)[C@H](O)[C@H]4O)c(OC)c(O)c3c2=O)cc1O [Iristectorin A] | 0.106 | 0.25 | – | – | – | – | – | 21528.7 | 27620 | 15437.3 | – | – | 0.178 |
| CC(=O)c1ccc(O)c(O)c1 [3',4'-Dihydroxyacetophenone] | -0.338 | -0.997 | – | 12205 | – | – | – | – | 22292.7 | 2117.17 | – | -0.667 | – |
| COc1ccc(-c2cc(=O)c3c(O)c(OC)c(O[C@@H]4O[C@H](CO[C@@H]5O[C@@H](C)[C@H](O)[C@@H](O)[C@H]5O)[C@@H](O)[C@H](O)[C@H]4O)cc3o2)cc1 [Pectolinarin] | 0.677 | -0.144 | – | – | – | – | – | 22850.6 | 34472.8 | 11228.4 | – | – | 0.266 |
| COc1cc(O)c2c(=O)cc(-c3ccc(O)cc3)oc2c1 [Genkwanin] | 1.231 | 0.655 | – | – | – | – | – | 30446.8 | 41129.3 | 19764.4 | 0.943 | – | – |
| COc1ccc(-c2oc3c(CC=C(C)C)c(O)cc(O)c3c(=O)c2O[C@@H]2O[C@@H](C)[C@H](O)[C@@H](O)[C@H]2O[C@@H]2O[C@H](CO)[C@@H](O)[C@H](O)[C@H]2O)cc1 [Sagittatoside A] | -0.371 | -0.506 | -0.438 | 14630.2 | 21894.6 | 7365.88 | – | – | – | – | – | – | – |
| COc1c(O[C@@H]2O[C@H](C(=O)O)[C@@H](O)[C@H](O)[C@H]2O)cc2oc(-c3ccccc3)cc(=O)c2c1O [Oroxylin A-7-O-glucuronide] | -0.296 | 0.55 | – | – | – | – | – | 20714.9 | 22792.7 | 18637 | – | – | 0.127 |
| O=C(/C=C/c1ccc(O)cc1)C1=C(O)C(O)([C@@H]2O[C@H](CO)[C@@H](O)[C@H](O)[C@H]2O)C(O)=C([C@@H]2O[C@H](CO)[C@@H](O)[C@H](O)[C@H]2O)C1=O (some centres unmarked) [Hydroxysafflor yellow A] | -0.826 | -0.428 | -0.627 | 12310.1 | – | – | – | – | 16428.1 | 8192.15 | – | – | – |
| OC[C@H]1O[C@@H](Oc2cc(O)cc(/C=C/c3ccc(O[C@@H]4O[C@H](CO)[C@@H](O)[C@H](O)[C@H]4O)cc3O)c2)[C@H](O)[C@@H](O)[C@@H]1O [Mulberroside A] | -0.183 | -0.34 | -0.262 | 16641.5 | 24150.5 | 9132.57 | – | – | – | – | – | – | – |
| COc1ccccc1O [Guaiacol] | -0.724 | -0.582 | – | 12102.3 | – | – | – | – | 17657.8 | 6546.75 | – | -0.653 | – |
| COC(=O)c1c(C)cc(OC(=O)c2c(C)cc(O)c(C=O)c2O)c(C)c1O [Atranorin] | -0.357 | -0.801 | -0.579 | 13136.9 | – | – | – | – | 22066.2 | 4207.53 | – | – | – |
